Measurements reported in patent US8435978B2, “Substituted sulfonamide compounds” (Gruenenthal GmbH, priority 2006, dated 2013).
Structures can show the parent of a compound that is named as a salt.

What was measured:
B1R receptor of the rat = target: T1, B1R receptor of the rat (Rattus norvegicus, UniProt P97583); experiment: Functional study on the bradykinin receptor 1 (B1R), FLIPR Ca2+ assay, rB1R cells; format: cell-based; conditions: CHO-K1, test substance 10 μM, agonist Des-Arg9-bradykinin 100 nM, % inhibition compared with the maximum achievable inhibition, read-out: B1R Antagonism, rat [10 μM] % Inhibition
T1 construct: host or cells: CHO K1 cells (Chinese hamster ovary), stably transfected
T1 sequence (P97583 1-337): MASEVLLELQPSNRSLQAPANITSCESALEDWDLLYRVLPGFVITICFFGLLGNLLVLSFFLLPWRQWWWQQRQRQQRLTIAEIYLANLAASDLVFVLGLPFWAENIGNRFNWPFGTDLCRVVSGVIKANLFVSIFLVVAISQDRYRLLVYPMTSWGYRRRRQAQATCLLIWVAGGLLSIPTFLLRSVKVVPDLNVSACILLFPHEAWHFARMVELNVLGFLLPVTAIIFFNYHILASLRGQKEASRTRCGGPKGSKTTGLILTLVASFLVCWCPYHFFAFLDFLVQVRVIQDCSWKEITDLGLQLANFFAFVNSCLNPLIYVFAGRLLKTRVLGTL
How it was run: (§1)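 CHO K1 cells stably expressing human or rat B1R were loaded with Fluo-4 and read on a FLIPR (ex 488/em 540 nm, peak fluorescence). Test compounds at 10 μM were added first, then after 10 min agonist: Lys-Des-Arg9-bradykinin 0.5 nM for hB1R, Des-Arg9-bradykinin 100 nM for rB1R; % inhibition versus maximum inhibition.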

human B1R receptor = target: T2, human B1R receptor (Homo sapiens, UniProt P46663); experiment: Functional study on the bradykinin receptor 1 (B1R), FLIPR Ca2+ assay, hB1R cells; format: cell-based; conditions: CHO-K1, test substance 10 μM, agonist Lys-Des-Arg9-bradykinin 0.5 nM, % inhibition compared with the maximum achievable inhibition, read-out: B1R Antagonism, human [10 μM] % Inhibition
T2 construct: host or cells: CHO K1 cells (Chinese hamster ovary), stably transfected
T2 sequence (P46663 1-353): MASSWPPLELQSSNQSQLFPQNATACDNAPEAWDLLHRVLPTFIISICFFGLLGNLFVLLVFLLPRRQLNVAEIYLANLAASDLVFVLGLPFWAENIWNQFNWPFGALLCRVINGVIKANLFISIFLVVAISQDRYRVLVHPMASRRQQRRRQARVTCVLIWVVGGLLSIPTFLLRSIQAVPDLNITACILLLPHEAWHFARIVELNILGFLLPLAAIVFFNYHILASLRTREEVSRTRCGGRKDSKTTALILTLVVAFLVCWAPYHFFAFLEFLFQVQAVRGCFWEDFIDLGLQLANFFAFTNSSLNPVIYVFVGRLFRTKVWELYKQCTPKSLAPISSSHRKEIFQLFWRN
How it was run: as §1

Structure (SMILES) | inhibition at 10 µM (B1R receptor of the rat) [%] | inhibition at 10 µM (human B1R receptor) [%]
COc1cc(C)c(S(=O)(=O)N2CCCCC2COCC(=O)NCc2ccccc2N2CCOCC2)c(C)c1 (centres unmarked) [Example 435, 2-((1-(4-methoxy-2,6-dimethylphenylsulfonyl)piperidin-2-yl)methoxy)-N-(2-morpholinobenzyl)acetamide] | 99.6 | 6.23
COc1ccc(S(=O)(=O)N2c3ccccc3CC2COCC(=O)N2CCN(CCn3c(C)ccc3C)CC2)cc1 (centres unmarked) [Example 548, 1-(4-(2-(2,5-dimethyl-1H-pyrrol-1-yl)ethyl)piperazin-1-yl)-2-((1-(4-methoxyphenylsulfonyl)indolin-2-yl)methoxy)ethanone] | 95.4 | 24.7
COc1cc(C)c(S(=O)(=O)N2CCCCC2COCC(=O)N2CCN(c3ccc(F)cc3)CC2)c(C)c1 (centres unmarked) [Example 289, 1-(4-(4-fluorophenyl)piperazin-1-yl)-2-((1-(4-methoxy-2,6-dimethylphenylsulfonyl)piperidin-2-yl)methoxy)ethanone] | 95.5 | 103
COc1cc(C)c(S(=O)(=O)N2CCCC2COCC(=O)NCc2ccc(CN3CCN(C)CC3)cc2)c(C)c1 (centres unmarked) [Example 40, 2-[1-(4-methoxy-2,6-dimethyl-phenylsulfonyl)-pyrrolidin-2-ylmethoxy]-N-[4-(4-methyl-piperazin-1-ylmethyl)-benzyl]-acetamide] | 88.7 | 72.7
CN1CCC(N2CCN(C(=O)COCC3CCCCN3S(=O)(=O)c3ccc(Cl)c4nonc34)CC2)CC1 (centres unmarked) [Example 154, 2-((1-(7-chlorobenzo[c][1,2,5]oxadiazol-4-ylsulfonyl)piperidin-2-yl)methoxy)-1-(4-(1-methylpiperidin-4-yl)piperazin-1-yl)ethanone] | 84.4 | 83.2
COc1cc(C)c(S(=O)(=O)N2CCCCC2COCC(=O)N2CCN(Cc3ccc(Br)cc3)CC2)c(C)c1 (centres unmarked) [Example 382, 1-(4-(4-bromobenzyl)piperazin-1-yl)-2-((1-(4-methoxy-2,6-dimethylphenylsulfonyl)piperidin-2-yl)methoxy)ethanone] | 101 | 103
O=C(COCC1CCCCN1S(=O)(=O)c1cccc(Br)c1)N1CCC(CCN2CCCC2)CC1 (centres unmarked) [Example 124, 2-((1-(3-bromophenylsulfonyl)piperidin-2-yl)methoxy)-1-(4-(2-(pyrrolidin-1-yl)ethyl)piperidin-1-yl)ethanone] | 63.2 | 76.3
CN1CCC(N2CCN(C(=O)COCC3CCCCN3S(=O)(=O)c3cc(Cl)c(Cl)cc3Cl)CC2)CC1 (centres unmarked) [Example 156, 1-(4-(1-methylpiperidin-4-yl)piperazin-1-yl)-2-((1-(2,4,5-trichlorophenylsulfonyl)piperidin-2-yl)methoxy)ethanone dihydrochloride] | 103 | 108
O=C(COCC1CCCCN1S(=O)(=O)c1c(Cl)cc(Cl)cc1Cl)N1CCC(c2ccncc2)C1 (centres unmarked) [Example 390, 1-(3-(pyridin-4-yl)pyrrolidin-1-yl)-2-((1-(2,4,6-trichlorophenylsulfonyl)piperidin-2-yl)methoxy)ethanone] | 99.8 | 103
O=C(COCC1CCCN1S(=O)(=O)c1ccc(Cl)c(Cl)c1)N1CCN(c2ccccc2)CC1 (centres unmarked) [Example 89, 2-[1-(3,4-dichloro-phenylsulfonyl)-pyrrolidin-2-ylmethoxy]-1-(4-phenyl-piperazin-1-yl)-ethanone] | 0 | 41.3
COc1cccc(N2CCN(C(=O)COCC3CCCCN3S(=O)(=O)c3c(C)cc(C)cc3C)CC2)c1 (centres unmarked) [Example 77, 1-[4-(3-methoxy-phenyl)-piperazin-1-yl]-2-[1-(2,4,6-trimethyl-phenylsulfonyl)-piperidin-2-ylmethoxy]-ethanone] | 105 | 48
COc1cc(C)c(S(=O)(=O)N2CCCCC2COCC(=O)Nc2cc(C)nc3ccccc23)c(C)c1 (centres unmarked) [Example 244, 2-((1-(4-methoxy-2,6-dimethylphenylsulfonyl)piperidin-2-yl)methoxy)-N-(2-methylquinolin-4-yl)acetamide] | 97.3 | 70.2
COc1cc(C)c(S(=O)(=O)N2CCCCC2COCC(=O)N(CCN(C)C)Cc2ccccc2)c(C)c1 (centres unmarked) [Example 361, N-benzyl-N-(2-(dimethylamino)ethyl)-2-((1-(4-methoxy-2,6-dimethylphenylsulfonyl)piperidin-2-yl)methoxy)acetamide] | 101 | 93.4
O=C(COCC1CCCCN1S(=O)(=O)c1c(Cl)cccc1Cl)N1CCN(Cc2ccccc2)CC1 (centres unmarked) [Example 480, 1-(4-benzylpiperazin-1-yl)-2-((1-(2,6-dichlorophenylsulfonyl)piperidin-2-yl)methoxy)ethanone] | 103 | 101

Continued, values first:

inhibition at 10 µM (B1R receptor of the rat) [%] | inhibition at 10 µM (human B1R receptor) [%] | Structure (SMILES)
102 | 73.3 | COc1cc(C)c(S(=O)(=O)N2CCCCC2COCC(=O)N2CCN(c3nc4ccccc4s3)CC2)c(C)c1 (centres unmarked) [Example 526, 1-(4-(benzo[d]thiazol-2-yl)piperazin-1-yl)-2-((1-(4-methoxy-2,6-dimethylphenylsulfonyl)piperidin-2-yl)methoxy)ethanone]
93.2 | 41.8 | COc1cc(C)c(S(=O)(=O)N2CCCC2COCC(=O)NC(CN2CCOCC2)c2ccccc2)c(C)c1 (centres unmarked) [Example 500, 2-((1-(4-methoxy-2,6-dimethylphenylsulfonyl)pyrrolidin-2-yl)methoxy)-N-(2-morpholino-1-phenylethyl)acetamide]
104 | 104 | COc1cc(C)c(S(=O)(=O)N2CCCC2COCC(=O)N2CCN(Cc3ccc(Br)cc3)CC2)c(C)c1 (centres unmarked) [Example 350, 1-(4-(4-bromobenzyl)piperazin-1-yl)-2-((1-(4-methoxy-2,6-dimethylphenylsulfonyl)pyrrolidin-2-yl)methoxy)ethanone]
89.6 | 38 | COc1ccc(S(=O)(=O)N2CCCCC2CCOCC(=O)N2CCN(CCN3CCCCC3)CC2)cc1 (centres unmarked) [Example 221, 2-(2-(1-(4-methoxyphenylsulfonyl)piperidin-2-yl)ethoxy)-1-(4-(2-(piperidin-1-yl)ethyl)piperazin-1-yl)ethanone]
99.8 | 105 | COc1cc(C)c(S(=O)(=O)N2CCCCC2COCC(=O)N2CCN(Cc3cnn(C)c3C)CC2)c(C)c1 (centres unmarked) [Example 198, 1-(4-((1,5-dimethyl-1H-pyrazol-4-yl)methyl)piperazin-1-yl)-2-((1-(4-methoxy-2,6-dimethylphenylsulfonyl)piperidin-2-yl)methoxy)ethanone]
98.5 | 45.8 | COc1cc(C)c(S(=O)(=O)N2CCCCC2COCC(=O)NCC(c2ccccc2Cl)N2CCOCC2)c(C)c1 (centres unmarked) [Example 251, N-(2-(2-chlorophenyl)-2-morpholinoethyl)-2-((1-(4-methoxy-2,6-dimethylphenylsulfonyl)piperidin-2-yl)methoxy)acetamide]
41.6 | 77.5 | O=C(COCC1CCCN1S(=O)(=O)c1c(Cl)cc(Cl)cc1Cl)NCCN1CCCC1 (centres unmarked) [Example 339, N-(2-(pyrrolidin-1-yl)ethyl)-2-((1-(2,4,6-trichlorophenylsulfonyl)pyrrolidin-2-yl)methoxy)acetamide]
101 | 106 | O=C(COCC1CCCCN1S(=O)(=O)c1c(Cl)cccc1Cl)N1CCCN(Cc2ccccc2)CC1 (centres unmarked) [Example 529, 1-(4-benzyl-1,4-diazepan-1-yl)-2-((1-(2,6-dichlorophenylsulfonyl)piperidin-2-yl)methoxy)ethanone]
7.33 | 42.1 | CN(C)CCCN1CCN(C(=O)COCC2CCCN2S(=O)(=O)c2ccc(Cl)c(Cl)c2)CC1 (centres unmarked) [Example 88, 2-[1-(3,4-dichloro-phenylsulfonyl)-pyrrolidin-2-ylmethoxy]-1-[4-(3-dimethylamino-propyl)-piperazin-1-yl]-ethanone]
90.6 | 24.2 | COc1cc(C)c(S(=O)(=O)N2CCCC2COCC(=O)Nc2nc3ccccc3n2C)c(C)c1 (centres unmarked) [Example 504, 2-((1-(4-methoxy-2,6-dimethylphenylsulfonyl)pyrrolidin-2-yl)methoxy)-N-(1-methyl-1H-benzo[d]imidazol-2-yl)acetamide]
98.6 | 48 | COc1ccc(S(=O)(=O)N2c3ccccc3CC2COCC(=O)NCC2CCCN(Cc3ccccc3)C2)cc1 (centres unmarked) [Example 422, N-((1-benzylpiperidin-3-yl)methyl)-2-((1-(4-methoxyphenylsulfonyl)indolin-2-yl)methoxy)acetamide]
